In ChEMBL document CHEMBL1131207, “Discovery and evaluation of a series of 3-acylindole imidazopyridine platelet-activating factor antagonists” (J Med Chem, 1998):

target: Platelet-activating factor receptor (Rattus norvegicus) (UniProt P46002); experiment: Ability to block the effect of exogenously administered PAF upon intravenous administration in PAF-induced rat skin permeability assay; type: functional, organism-based
Sequence (P46002 whole entry): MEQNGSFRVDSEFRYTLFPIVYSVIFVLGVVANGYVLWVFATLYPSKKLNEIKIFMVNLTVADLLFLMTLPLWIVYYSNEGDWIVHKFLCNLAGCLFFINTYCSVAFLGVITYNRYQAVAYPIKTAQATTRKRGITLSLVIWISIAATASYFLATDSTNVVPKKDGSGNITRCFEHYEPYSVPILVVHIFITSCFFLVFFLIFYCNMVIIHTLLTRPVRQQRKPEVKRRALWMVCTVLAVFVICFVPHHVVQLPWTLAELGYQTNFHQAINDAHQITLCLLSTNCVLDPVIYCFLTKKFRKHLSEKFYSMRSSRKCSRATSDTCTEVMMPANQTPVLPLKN

| SMILES | ED50 [mg/kg] |
| --- | --- |
| COC(=O)c1cccc2c1c(S(=O)(=O)c1ccc(Cn3c(C)nc4cnccc43)cc1)cn2C(=O)N(C)C | 0.48 |
| Cc1nc2cnccc2n1Cc1ccc(C(=O)c2cn(C(=O)N(C)C)c3cccc(C#N)c23)cc1 | 0.23 |
| COC(=O)c1cccc2c1c(C(=O)c1ccc(Cn3c(C)nc4ccncc43)cc1)cn2C(=O)N(C)C | 0.24 |
| COC(=O)c1ccc(C(=O)OC)c2c(C(=O)c3ccc(Cn4c(C)nc5cnccc54)cc3)c[nH]c12 | 0.035 |
| COC(=O)c1cc(C#Cc2ccccc2)cc2c1c(C(=O)c1ccc(Cn3c(C)nc4cnccc43)cc1)cn2C(=O)N(C)C | 0.004 |
| Cc1nc2cnccc2n1CCCN(C)CC(=O)c1cn(C(=O)N(C)C)c2cc(-c3ccc(F)cc3)ccc12 | > 1 |
| Cc1nc2cnccc2n1Cc1ccc(C(=O)c2c[nH]c3c(-c4ccc(F)cc4)cccc23)cc1 | > 1 |
| COC(=O)c1ccc2c(c1)c(C(=O)c1ccc(Cn3c(C)nc4cnccc43)cc1)cn2C(=O)N(C)C | > 1 |
| Cc1nc2cnccc2n1Cc1ccc(C(=O)c2cn(C(=O)N(C)C)c3cccc(-c4ccc(F)cc4)c23)cc1 | 0.004 |
| Cc1nc2cnccc2n1CC(=O)c1cn(C(=O)N(C)C)c2cc(-c3ccc(F)cc3)ccc12 | > 1 |
| Cc1nc2cnccc2n1Cc1ccc(C(=O)c2cn(C(=O)N(C)C)c3cccc(C(=O)OCc4ccccc4)c23)cc1 | 0.12 |
| Cc1nc2cnccc2n1Cc1ccc(C(=O)c2c[nH]c3cc(-c4ccc(F)cc4)ccc23)cc1 | 1.3 |
| COC(=O)c1cccc2c1c(C(=O)CCCCCCn1c(C)nc3cnccc31)cn2C(=O)N(C)C | > 1 |
| COC(=O)c1[nH]c2cccc(OC)c2c1C(=O)c1ccc(Cn2c(C)nc3cnccc32)cc1 | 0.65 |
| Cc1cccc2c1c(C(=O)c1ccc(Cn3c(C)nc4cnccc43)cc1)cn2C(=O)N(C)C | 0.004 |
| COC(=O)c1cccc2c1c(C(=O)c1ccc(Cn3c(C)nc4c(C)nc(C)cc43)cc1)cn2C(=O)N(C)C | > 1 |
| Cc1nc2cnccc2n1Cc1ccc(C(=O)c2cn(C(=O)N(C)C)c3cccc(C(=O)N(C)C)c23)cc1 | 0.028 |
| Cc1nc2ccncc2n1Cc1ccc(C(=O)c2cn(C(=O)N(C)C)c3cc(-c4ccc(F)cc4)ccc23)cc1 | 1.1 |
| CNC(=O)n1cc(C(=O)c2ccc(Cn3c(C)nc4cnccc43)cc2)c2c(C(=O)OC)cccc21 | 0.007 |
| Cc1nc2ncccc2n1Cc1ccc(C(=O)c2cn(C(=O)N(C)C)c3cccc(Cl)c23)cc1 | 0.34 |

| SMILES | ED50 [mg/kg] |
| --- | --- |
| COC(=O)c1cccc2c1c(C(=O)c1ccc(Cn3c(C)nc4cnccc43)cc1)cn2S(=O)(=O)C(C)C | 0.12 |
| Cc1nc2cnccc2n1Cc1ccc(C(=O)c2cn(C(=O)N(C)C)c3cccc(Br)c23)cc1 | 0.007 |
| COC(=O)c1cccc2c1c(C(=O)CN1CCC(n3c(C)nc4cnccc43)CC1)cn2C(=O)N(C)C | 0.006 |
| Cc1nc2cnccc2n1CC1CCN(C(=O)c2cn(C(=O)N(C)C)c3cc(-c4ccc(F)cc4)ccc23)CC1 | 0.022 |
| C#Cc1cccc2[nH]cc(C(=O)c3ccc(Cn4c(C)nc5cnccc54)c(F)c3)c12 | 0.018 |
| COC(=O)c1cccc2c1c(C(=O)c1ccc(Cn3c(C)nc4cccnc43)cc1)cn2C(=O)N(C)C | 1.2 |
| C#Cc1cccc2c1c(C(=O)c1ccc(Cn3c(C)nc4c[n+]([O-])ccc43)c(F)c1)cn2C(=O)N(C)C | > 0.5 |
| Cc1[nH]c2ccccc2c1C(=O)c1ccc(Cn2c(C)nc3cnccc32)cc1 | > 1 |
| CCOCCn1cc(C(=O)CN2CCC(n3c(C)nc4cnccc43)CC2)c2c(Cl)cccc21 | 0.068 |
| C#Cc1cccc2c1c(C(=O)c1ccc(Cn3c(C)nc4cnccc43)c(F)c1)cn2C(=O)NC | 0.006 |
| Cc1nc2cnccc2n1Cc1csc(C(=O)c2cn(C(=O)N(C)C)c3cc(-c4ccc(F)cc4)ccc23)n1 | 0.35 |
| COC(=O)c1cccc2c1c(C(=O)c1ccc(Cn3c(C)nc4cnccc43)cc1)cn2C(N)=O | 0.12 |
| COC(=O)c1cccc2c1c(C(=O)c1ccc(Cn3c(C)nc4cnccc43)cc1)cn2S(=O)(=O)N(C)C | 0.074 |
| Cc1nc2cnccc2n1Cc1ccc(C(=O)c2c[nH]c3c(OCc4ccccc4)cccc23)cc1 | 0.24 |
| Cc1nc2cnccc2n1Cc1ccc(C(=O)c2cn(C(=O)N(C)C)c3cccc(C(=O)OC(C)C)c23)cc1 | 0.006 |
| Cc1nc2cnccc2n1CN1CCN(S(=O)(=O)c2cn(C(=O)N(C)C)c3cc(-c4ccc(F)cc4)ccc23)CC1 | 0.019 |
| COC(=O)c1cccc2c1c(C(=O)c1ccc(Cn3c(C)nc4cnccc43)cc1)cn2CC(=O)C(C)(C)C | 0.036 |
| COC(=O)c1cccc2c1c(C(=O)CCCCn1c(C)nc3cnccc31)cn2C(=O)N(C)C | > 1 |
| Cc1nc2cnccc2n1Cc1ccc(S(=O)(=O)c2cn(C(=O)N(C)C)c3ccccc23)cc1 | > 1 |
| Cc1nc2cnccc2n1Cc1ccc(C(=O)c2cn(C(=O)N(C)C)c3cccc(NC(=O)c4ccccc4)c23)cc1 | 0.11 |

| SMILES | ED50 [mg/kg] |
| --- | --- |
| C#Cc1cccc2c1c(C(O)c1ccc(Cn3c(C)nc4cnccc43)c(F)c1)cn2C(=O)N(C)C (configuration not stated) | 0.007 |
| COC(=O)c1cccc2c1c(C(=O)c1ccc(Cn3c(C)nc4ccccc43)cc1)cn2C(=O)N1CCCC1 | 1 |
| COC(=O)c1cccc2c1c(C(=O)c1ccc(Cn3c(C)nc4c(O)nccc43)cc1)cn2C(=O)N(C)C | 0.25 |
| COC(=O)c1cccc2c1c(C(=O)c1ccc(Cn3c(C)nc4ccccc43)cc1)cn2C(=O)N(C)C | > 1 |
| Cc1nc2cnccc2n1Cc1ccc(C(=O)c2cn(C(=O)N(C)C)c3cccc(C(=O)O)c23)cc1 | > 1 |
| Cc1nc2cnccc2n1Cc1ccc(C(=O)c2cn(C(=O)N(C)C)c3cccc(O)c23)cc1 | > 1 |
| COC(=O)c1cc(-c2cc3ccccc3o2)cc2c1c(C(=O)c1ccc(Cn3c(C)nc4cnccc43)cc1)cn2C(=O)N(C)C | 0.011 |
| COC(=O)c1cccc2c1c(C(=O)c1ccc(Cn3c(C)nc4cnccc43)s1)cn2C(=O)N(C)C | 0.12 |
| COC(=O)c1cccc2c1c(C(=O)c1ccc(Cn3c(C)nc4ncccc43)cc1)cn2C(=O)N(C)C | 0.026 |
| Cc1nc2cnccc2n1Cc1ccc(C(=O)c2cn(C(=O)N(C)C)c3cccc(F)c23)cc1 | 0.18 |
| COC(=O)c1cccc2c1c(C(=O)c1ccc(Cn3c(C)nc4cnccc43)cc1)cn2C(C)C | 0.1 |
| Cc1nc2cnccc2n1Cc1ccc(C(=O)c2cn(C(=O)N(C)C)c3ccccc23)cc1 | 0.18 |
| Cc1nc2cnccc2n1C1CCN(C(=O)c2cn(C(=O)N(C)C)c3cc(-c4ccc(F)cc4)ccc23)CC1 | > 1 |
| COC(=O)c1cccc2c1c(C(=O)c1ccc(Cn3c(C)nc4c[n+]([O-])ccc43)cc1)cn2C(=O)N(C)C | 0.14 |
| Cc1nc2cnccc2n1CCN1CCN(C(=O)c2cn(C(=O)N(C)C)c3cc(-c4ccc(F)cc4)ccc23)CC1 | > 1 |
| Cc1ccc(C)c2c(C(=O)c3ccc(Cn4c(C)nc5cnccc54)cc3)c[nH]c12 | 0.054 |
| Cc1nc2cnccc2n1Cc1ccc(C(=O)c2cn(C(=O)N(C)C)c3ccc(-c4ccc(F)cc4)cc23)cc1 | > 1 |
| COC(=O)c1cccc2[nH]cc(C(=O)c3ccc(Cn4c(C)nc5cnccc54)cc3)c12 | 0.15 |

target: Platelet-activating factor receptor (Rattus norvegicus) (UniProt P46002); experiment: Tested in vivo for to block the effect of exogenously administered PAF upon oral administration in PAF-induced rat skin permeability assay; type: functional, organism-based

| SMILES | ED50 [mg/kg] |
| --- | --- |
| COC(=O)c1ccc(C(=O)OC)c2c(C(=O)c3ccc(Cn4c(C)nc5cnccc54)cc3)c[nH]c12 | 0.71 |
| COC(=O)c1cc(C#Cc2ccccc2)cc2c1c(C(=O)c1ccc(Cn3c(C)nc4cnccc43)cc1)cn2C(=O)N(C)C | 0.6 |
| Cc1nc2cnccc2n1Cc1ccc(C(=O)c2cn(C(=O)N(C)C)c3cccc(-c4ccc(F)cc4)c23)cc1 | 0.45 |
| Cc1cccc2c1c(C(=O)c1ccc(Cn3c(C)nc4cnccc43)cc1)cn2C(=O)N(C)C | 0.2 |
| Cc1nc2cnccc2n1Cc1ccc(C(=O)c2cn(C(=O)N(C)C)c3cccc(C(=O)N(C)C)c23)cc1 | 1.3 |
| Cc1nc2cnccc2n1Cc1ccc(C(=O)c2cn(C(=O)N(C)C)c3cccc(Br)c23)cc1 | 0.13 |
| COC(=O)c1cccc2c1c(C(=O)CN1CCC(n3c(C)nc4cnccc43)CC1)cn2C(=O)N(C)C | > 1 |
| Cc1nc2cnccc2n1CC1CCN(C(=O)c2cn(C(=O)N(C)C)c3cc(-c4ccc(F)cc4)ccc23)CC1 | 2.2 |
| COC(=O)c1cccc2c1c(C(=O)c1ccc(Cn3c(C)nc4cnccc43)cc1)cn2C(=O)N(C)C | 0.22 |
